Measurements taken from ChEMBL document CHEMBL5715260, “Selectivity Literature for EUbOPEN Chemogenomic Library” (2024).

Experiments:
[1] = target: T1, Alpha trans-inducing protein (Human alphaherpesvirus 1) (UniProt A0A5J6DW59); experiment: Selectivity interaction (Reporter gene assay) EUB0001482aCl UL48; design: recommended concentration 10 uM
[2] = target: Nuclear receptor subfamily 2 group E member 1 (Homo sapiens) (UniProt Q9Y466); experiment: Selectivity interaction (Reporter gene assay) EUB0001482aCl NR2E1; design: recommended concentration 10 uM
Sequence of Nuclear receptor subfamily 2 group E member 1 (Homo sapiens) (Q9Y466 whole entry): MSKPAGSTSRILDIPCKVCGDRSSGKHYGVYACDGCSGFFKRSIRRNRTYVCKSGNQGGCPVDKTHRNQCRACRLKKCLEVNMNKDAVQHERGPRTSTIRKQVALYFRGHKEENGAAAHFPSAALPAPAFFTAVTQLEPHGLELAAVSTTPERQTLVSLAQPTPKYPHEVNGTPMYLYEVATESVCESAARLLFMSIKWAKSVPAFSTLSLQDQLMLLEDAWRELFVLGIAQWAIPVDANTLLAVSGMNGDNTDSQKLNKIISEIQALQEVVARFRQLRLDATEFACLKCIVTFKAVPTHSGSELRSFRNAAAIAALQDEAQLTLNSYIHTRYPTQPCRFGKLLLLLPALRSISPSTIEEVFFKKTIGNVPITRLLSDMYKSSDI

[3] = target: T2, Hepatocyte nuclear factor 4-alpha (Homo sapiens) (UniProt P41235); experiment: Selectivity interaction (Reporter gene assay) EUB0001482aCl HNF4A; design: recommended concentration 10 uM
T2 sequence (whole entry): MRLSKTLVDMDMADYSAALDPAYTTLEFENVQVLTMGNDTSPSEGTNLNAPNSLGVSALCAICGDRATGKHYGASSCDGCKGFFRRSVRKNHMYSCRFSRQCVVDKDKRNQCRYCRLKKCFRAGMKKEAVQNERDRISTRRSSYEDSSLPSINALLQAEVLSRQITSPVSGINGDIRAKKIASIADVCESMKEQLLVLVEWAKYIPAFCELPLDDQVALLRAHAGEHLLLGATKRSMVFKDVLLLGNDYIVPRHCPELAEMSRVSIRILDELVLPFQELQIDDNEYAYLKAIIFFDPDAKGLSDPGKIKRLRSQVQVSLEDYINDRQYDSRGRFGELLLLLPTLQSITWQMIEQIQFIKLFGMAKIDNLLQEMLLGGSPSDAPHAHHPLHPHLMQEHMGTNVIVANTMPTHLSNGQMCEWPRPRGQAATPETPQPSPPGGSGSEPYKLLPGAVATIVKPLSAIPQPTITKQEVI

[4] = target: Nuclear receptor subfamily 4immunitygroup A member 1 (Homo sapiens) (UniProt P22736); experiment: Selectivity interaction (Reporter gene assay) EUB0001482aCl NR4A1; design: recommended concentration 10 uM
Sequence of Nuclear receptor subfamily 4immunitygroup A member 1 (Homo sapiens) (P22736 whole entry): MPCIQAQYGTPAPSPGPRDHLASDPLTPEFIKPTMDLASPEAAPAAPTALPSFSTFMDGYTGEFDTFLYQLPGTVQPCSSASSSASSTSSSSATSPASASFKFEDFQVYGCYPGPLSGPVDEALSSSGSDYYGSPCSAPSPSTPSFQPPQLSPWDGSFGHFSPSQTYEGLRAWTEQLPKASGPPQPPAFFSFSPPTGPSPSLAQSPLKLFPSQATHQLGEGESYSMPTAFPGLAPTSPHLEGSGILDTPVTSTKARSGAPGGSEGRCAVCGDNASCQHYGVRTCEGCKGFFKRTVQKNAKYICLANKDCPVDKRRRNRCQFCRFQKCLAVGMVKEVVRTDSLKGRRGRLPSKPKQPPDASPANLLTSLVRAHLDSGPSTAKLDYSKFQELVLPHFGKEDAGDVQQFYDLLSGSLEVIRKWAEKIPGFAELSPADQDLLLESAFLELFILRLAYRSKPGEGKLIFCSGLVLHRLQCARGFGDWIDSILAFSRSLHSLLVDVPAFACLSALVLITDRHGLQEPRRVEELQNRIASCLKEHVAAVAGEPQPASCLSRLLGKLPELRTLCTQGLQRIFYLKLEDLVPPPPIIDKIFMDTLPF

[5] = target: T3, Retinoic acid receptor RXR-alpha (Homo sapiens) (UniProt P19793); experiment: Selectivity interaction (Reporter gene assay) EUB0001482aCl RXRA; design: recommended concentration 10 uM; conditions: reference bexarotene 1 uM, Selectivity number of off-targets 0.0, Selectivity number of targets 1.0, Source Knowledge inhouse
T3 sequence (whole entry): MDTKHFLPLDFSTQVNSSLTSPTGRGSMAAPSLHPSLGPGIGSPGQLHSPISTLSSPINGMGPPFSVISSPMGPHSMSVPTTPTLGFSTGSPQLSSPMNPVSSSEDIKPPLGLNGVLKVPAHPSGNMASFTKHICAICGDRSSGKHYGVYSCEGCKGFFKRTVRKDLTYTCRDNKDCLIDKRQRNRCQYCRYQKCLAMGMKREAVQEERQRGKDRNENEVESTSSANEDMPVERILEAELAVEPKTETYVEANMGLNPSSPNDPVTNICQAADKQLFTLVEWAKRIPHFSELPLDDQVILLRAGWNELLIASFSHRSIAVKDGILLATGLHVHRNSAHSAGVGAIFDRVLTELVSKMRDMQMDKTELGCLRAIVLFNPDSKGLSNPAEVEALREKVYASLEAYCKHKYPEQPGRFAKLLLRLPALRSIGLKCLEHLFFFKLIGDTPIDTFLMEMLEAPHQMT

[6] = target: T4, Nuclear receptor subfamily 2 group C member 1 (Homo sapiens) (UniProt P13056); experiment: Selectivity interaction (Reporter gene assay) EUB0001482aCl NR2C1; design: recommended concentration 10 uM
T4 sequence (whole entry): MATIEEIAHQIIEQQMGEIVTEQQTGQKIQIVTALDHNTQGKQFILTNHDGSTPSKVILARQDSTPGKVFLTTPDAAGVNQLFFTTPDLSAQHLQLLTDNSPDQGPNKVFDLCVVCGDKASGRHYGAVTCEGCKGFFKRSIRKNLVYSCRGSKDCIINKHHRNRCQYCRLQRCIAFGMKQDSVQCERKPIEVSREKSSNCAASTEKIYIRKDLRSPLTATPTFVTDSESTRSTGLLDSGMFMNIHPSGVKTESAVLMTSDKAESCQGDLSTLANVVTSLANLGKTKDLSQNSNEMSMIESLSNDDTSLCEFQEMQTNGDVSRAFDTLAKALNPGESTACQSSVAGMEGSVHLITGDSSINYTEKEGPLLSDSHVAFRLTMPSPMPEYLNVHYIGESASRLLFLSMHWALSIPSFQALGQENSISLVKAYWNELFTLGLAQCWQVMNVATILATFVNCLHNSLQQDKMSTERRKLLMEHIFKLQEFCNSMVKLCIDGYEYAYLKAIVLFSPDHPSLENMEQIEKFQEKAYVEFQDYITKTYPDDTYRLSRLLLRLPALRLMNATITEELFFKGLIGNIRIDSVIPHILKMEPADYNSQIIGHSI

[7] = target: Steroidogenic factor 1 (Homo sapiens) (UniProt Q13285); experiment: Selectivity interaction (Reporter gene assay) EUB0001482aCl NR5A1; design: recommended concentration 10 uM
Sequence of Steroidogenic factor 1 (Homo sapiens) (Q13285 whole entry): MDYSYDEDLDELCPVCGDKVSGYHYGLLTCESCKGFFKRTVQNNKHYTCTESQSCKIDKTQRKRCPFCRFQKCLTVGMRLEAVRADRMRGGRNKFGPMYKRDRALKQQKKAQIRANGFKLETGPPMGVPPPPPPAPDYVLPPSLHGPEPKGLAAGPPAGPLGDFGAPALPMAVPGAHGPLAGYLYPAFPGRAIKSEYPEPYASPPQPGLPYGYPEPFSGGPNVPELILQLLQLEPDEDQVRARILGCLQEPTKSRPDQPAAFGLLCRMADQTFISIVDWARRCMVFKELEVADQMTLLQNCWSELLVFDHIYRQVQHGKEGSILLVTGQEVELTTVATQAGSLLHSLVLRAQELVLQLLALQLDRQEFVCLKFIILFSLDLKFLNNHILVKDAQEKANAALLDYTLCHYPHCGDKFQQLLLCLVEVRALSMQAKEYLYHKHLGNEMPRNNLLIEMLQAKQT

[8] = target: Nuclear receptor subfamily 4immunitygroup A member 1 (Homo sapiens) (UniProt P22736); experiment: Selectivity interaction (Reporter gene assay) EUB0001174a NR4A1; design: recommended concentration 1 uM
[9] = target: Nuclear receptor subfamily 2 group E member 1 (Homo sapiens) (UniProt Q9Y466); experiment: Selectivity interaction (Reporter gene assay) EUB0001174a NR2E1; design: recommended concentration 1 uM; conditions: screened at recom. conc., Selectivity number of off-targets 1.0, Selectivity number of targets 5.0, Source Knowledge inhouse
[10] = target: T5, Oxysterols receptor LXR-beta (Homo sapiens) (UniProt P55055); experiment: Selectivity interaction (Reporter gene assay) EUB0001174a NR1H2; design: recommended concentration 1 uM; conditions: screened at recom. conc., Selectivity number of off-targets 1.0, Selectivity number of targets 19.0, Source Knowledge inhouse
T5 sequence (whole entry): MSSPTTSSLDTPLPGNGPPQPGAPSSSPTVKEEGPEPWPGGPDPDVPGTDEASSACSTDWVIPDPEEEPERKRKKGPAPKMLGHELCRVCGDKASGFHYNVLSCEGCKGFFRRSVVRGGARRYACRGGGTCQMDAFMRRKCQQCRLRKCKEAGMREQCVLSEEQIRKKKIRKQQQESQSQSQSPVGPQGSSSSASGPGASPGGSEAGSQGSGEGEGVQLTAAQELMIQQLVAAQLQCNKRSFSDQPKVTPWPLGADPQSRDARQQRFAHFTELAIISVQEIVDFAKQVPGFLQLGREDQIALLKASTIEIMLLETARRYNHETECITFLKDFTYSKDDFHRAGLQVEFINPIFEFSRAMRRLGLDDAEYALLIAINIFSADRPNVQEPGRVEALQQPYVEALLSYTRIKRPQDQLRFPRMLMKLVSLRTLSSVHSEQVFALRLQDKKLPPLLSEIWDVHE

[11] = target: T1, Alpha trans-inducing protein (Human alphaherpesvirus 1); experiment: Selectivity interaction (Reporter gene assay) EUB0001174a UL48; design: recommended concentration 1 uM
[12] = target: T3, Retinoic acid receptor RXR-alpha (Homo sapiens); experiment: Selectivity interaction (Reporter gene assay) EUB0001174a RXRA; design: recommended concentration 1 uM; conditions: reference bexarotene 1 uM, Selectivity number of off-targets 0.0, Selectivity number of targets 1.0, Source Knowledge inhouse
[13] = target: T4, Nuclear receptor subfamily 2 group C member 1 (Homo sapiens); experiment: Selectivity interaction (Reporter gene assay) EUB0001174a NR2C1; design: recommended concentration 1 uM
[14] = target: Oxysterols receptor LXR-alpha (Homo sapiens) (UniProt Q13133); experiment: Selectivity interaction (Reporter gene assay) EUB0001174a NR1H3; design: recommended concentration 1 uM; conditions: screened at recom. conc., Selectivity number of off-targets 1.0, Selectivity number of targets 19.0, Source Knowledge inhouse
Sequence of Oxysterols receptor LXR-alpha (Homo sapiens) (Q13133 whole entry): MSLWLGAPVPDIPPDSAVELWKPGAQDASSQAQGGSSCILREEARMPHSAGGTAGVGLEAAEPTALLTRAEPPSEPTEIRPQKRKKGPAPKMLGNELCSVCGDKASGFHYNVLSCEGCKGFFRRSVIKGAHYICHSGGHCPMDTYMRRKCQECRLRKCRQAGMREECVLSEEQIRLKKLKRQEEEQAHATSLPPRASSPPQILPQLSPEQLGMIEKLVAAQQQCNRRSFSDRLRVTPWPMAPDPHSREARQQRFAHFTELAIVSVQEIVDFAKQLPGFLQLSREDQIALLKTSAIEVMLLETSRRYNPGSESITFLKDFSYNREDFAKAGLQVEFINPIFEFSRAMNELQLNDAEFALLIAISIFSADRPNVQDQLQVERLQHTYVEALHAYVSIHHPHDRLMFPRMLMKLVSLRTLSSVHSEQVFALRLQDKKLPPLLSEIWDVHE

[15] = target: Steroidogenic factor 1 (Homo sapiens) (UniProt Q13285); experiment: Selectivity interaction (Reporter gene assay) EUB0001174a NR5A1; design: recommended concentration 1 uM
[16] = target: T2, Hepatocyte nuclear factor 4-alpha (Homo sapiens); experiment: Selectivity interaction (Reporter gene assay) EUB0001174a HNF4A; design: recommended concentration 1 uM
[17] = target: Nuclear receptor subfamily 2 group E member 1 (Homo sapiens) (UniProt Q9Y466); experiment: Selectivity interaction (Reporter gene assay) EUB0001477a NR2E1; design: recommended concentration 1 uM
[18] = target: T2, Hepatocyte nuclear factor 4-alpha (Homo sapiens); experiment: Selectivity interaction (Reporter gene assay) EUB0001477a HNF4A; design: recommended concentration 1 uM
[19] = target: T3, Retinoic acid receptor RXR-alpha (Homo sapiens); experiment: Selectivity interaction (Reporter gene assay) EUB0001477a RXRA; design: recommended concentration 1 uM; conditions: reference bexarotene 1 uM, Selectivity number of off-targets 0.0, Selectivity number of targets 1.0, Source Knowledge inhouse
[20] = target: Nuclear receptor subfamily 4immunitygroup A member 1 (Homo sapiens) (UniProt P22736); experiment: Selectivity interaction (Reporter gene assay) EUB0001477a NR4A1; design: recommended concentration 1 uM
[21] = target: T1, Alpha trans-inducing protein (Human alphaherpesvirus 1); experiment: Selectivity interaction (Reporter gene assay) EUB0001477a UL48; design: recommended concentration 1 uM
[22] = target: T4, Nuclear receptor subfamily 2 group C member 1 (Homo sapiens); experiment: Selectivity interaction (Reporter gene assay) EUB0001477a NR2C1; design: recommended concentration 1 uM
[23] = target: Steroidogenic factor 1 (Homo sapiens) (UniProt Q13285); experiment: Selectivity interaction (Reporter gene assay) EUB0001477a NR5A1; design: recommended concentration 1 uM
[24] = target: DNA (cytosine-5)-methyltransferase 3B (Homo sapiens) (UniProt Q9UBC3); experiment: (§1) Selectivity interaction (Enzymatic assay (human methyltransferases)) EUB0002223a DNMT3B; design: recommended concentration 1 uM; conditions: at 50 µM
[25] = target: DNA (cytosine-5)-methyltransferase 3B (Homo sapiens) (UniProt Q9UBC3); experiment: as §1; design: recommended concentration 1 uM; conditions: at 50 µM; remark: listed apart in the source
[26] = target: DNA (cytosine-5)-methyltransferase 3A (Homo sapiens) (UniProt Q9Y6K1); conditions: at 50 µM
Sequence of DNA (cytosine-5)-methyltransferase 3A (Homo sapiens) (Q9Y6K1 whole entry, looked up): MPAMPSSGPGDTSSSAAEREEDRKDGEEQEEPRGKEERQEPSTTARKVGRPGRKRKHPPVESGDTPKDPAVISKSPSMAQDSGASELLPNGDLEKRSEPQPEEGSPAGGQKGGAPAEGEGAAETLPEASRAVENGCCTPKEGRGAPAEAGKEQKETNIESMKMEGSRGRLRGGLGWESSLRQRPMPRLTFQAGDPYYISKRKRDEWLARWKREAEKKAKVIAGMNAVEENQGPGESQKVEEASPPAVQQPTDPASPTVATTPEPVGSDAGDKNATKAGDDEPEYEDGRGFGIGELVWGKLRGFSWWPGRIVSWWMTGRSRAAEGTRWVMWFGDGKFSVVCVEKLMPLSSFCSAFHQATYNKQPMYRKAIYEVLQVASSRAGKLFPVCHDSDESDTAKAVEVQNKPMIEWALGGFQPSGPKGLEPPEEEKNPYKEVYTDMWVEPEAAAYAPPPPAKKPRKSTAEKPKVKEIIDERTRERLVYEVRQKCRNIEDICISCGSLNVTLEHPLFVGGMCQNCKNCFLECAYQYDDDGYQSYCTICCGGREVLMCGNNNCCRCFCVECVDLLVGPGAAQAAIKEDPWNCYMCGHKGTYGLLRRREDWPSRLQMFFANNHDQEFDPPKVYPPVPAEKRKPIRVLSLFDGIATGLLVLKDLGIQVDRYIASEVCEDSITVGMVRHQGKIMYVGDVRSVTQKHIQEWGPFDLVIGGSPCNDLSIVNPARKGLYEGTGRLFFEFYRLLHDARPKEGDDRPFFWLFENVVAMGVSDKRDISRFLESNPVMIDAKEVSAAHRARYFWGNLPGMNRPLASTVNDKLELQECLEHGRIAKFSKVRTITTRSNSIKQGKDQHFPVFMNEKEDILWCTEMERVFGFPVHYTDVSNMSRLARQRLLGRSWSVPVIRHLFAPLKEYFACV

[27] = target: DNA (cytosine-5)-methyltransferase 3B (Homo sapiens) (UniProt Q9UBC3); experiment: as §1; design: recommended concentration 1 uM; conditions: at 50 µM; remark: listed apart in the source
[28] = target: DNA (cytosine-5)-methyltransferase 3B (Homo sapiens) (UniProt Q9UBC3); experiment: as §1; design: recommended concentration 1 uM; conditions: at 50 µM; remark: listed apart in the source
[29] = target: DNA (cytosine-5)-methyltransferase 3A (Homo sapiens) (UniProt Q9Y6K1); conditions: at 50 µM; remark: listed apart in the source
[30] = target: DNA (cytosine-5)-methyltransferase 3A (Homo sapiens) (UniProt Q9Y6K1); conditions: at 50 µM; remark: listed apart in the source
[31] = target: DNA (cytosine-5)-methyltransferase 3A (Homo sapiens) (UniProt Q9Y6K1); conditions: at 50 µM; remark: listed apart in the source
[32] = target: Nuclear receptor subfamily 2 group E member 1 (Homo sapiens) (UniProt Q9Y466); experiment: Selectivity interaction (Reporter gene assay) EUB0001169a NR2E1; design: recommended concentration 1 uM
[33] = target: Nuclear receptor subfamily 4immunitygroup A member 1 (Homo sapiens) (UniProt P22736); experiment: Selectivity interaction (Reporter gene assay) EUB0001169a NR4A1; design: recommended concentration 1 uM
[34] = target: T1, Alpha trans-inducing protein (Human alphaherpesvirus 1); experiment: Selectivity interaction (Reporter gene assay) EUB0001169a UL48; design: recommended concentration 1 uM
[35] = target: Steroidogenic factor 1 (Homo sapiens) (UniProt Q13285); experiment: Selectivity interaction (Reporter gene assay) EUB0001169a NR5A1; design: recommended concentration 1 uM; conditions: screened at recom. conc., Selectivity number of off-targets 1.0, Selectivity number of targets 5.0, Source Knowledge inhouse
[36] = target: T4, Nuclear receptor subfamily 2 group C member 1 (Homo sapiens); experiment: Selectivity interaction (Reporter gene assay) EUB0001169a NR2C1; design: recommended concentration 1 uM
[37] = target: T2, Hepatocyte nuclear factor 4-alpha (Homo sapiens); experiment: Selectivity interaction (Reporter gene assay) EUB0001169a HNF4A; design: recommended concentration 1 uM
[38] = target: T3, Retinoic acid receptor RXR-alpha (Homo sapiens); experiment: Selectivity interaction (Reporter gene assay) EUB0001169a RXRA; design: recommended concentration 1 uM

T1 sequence (A0A5J6DW59 as listed by the source): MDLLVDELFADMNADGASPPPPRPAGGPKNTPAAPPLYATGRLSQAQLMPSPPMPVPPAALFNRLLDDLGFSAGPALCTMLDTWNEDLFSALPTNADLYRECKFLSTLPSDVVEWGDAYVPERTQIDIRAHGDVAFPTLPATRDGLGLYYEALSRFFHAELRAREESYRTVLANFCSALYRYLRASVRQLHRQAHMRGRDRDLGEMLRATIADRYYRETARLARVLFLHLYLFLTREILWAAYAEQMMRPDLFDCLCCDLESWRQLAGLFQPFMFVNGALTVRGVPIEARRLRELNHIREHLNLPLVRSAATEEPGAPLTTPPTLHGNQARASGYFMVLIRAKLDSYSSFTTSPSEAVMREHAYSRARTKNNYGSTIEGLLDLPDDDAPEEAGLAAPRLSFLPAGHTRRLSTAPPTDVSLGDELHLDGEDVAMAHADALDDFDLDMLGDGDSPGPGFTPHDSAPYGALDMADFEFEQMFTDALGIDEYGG

C[C@H](CCOc1cccc(CC(=O)O)c1)N(Cc1cccc(C(F)(F)F)c1Cl)CC(c1ccccc1)c1ccccc1
P-value [1]: 0.0185 | Fold activation [2]: 1.41 | Fold activation [3]: 1.02 | Fold activation [4]: 1.25 | Relative activation [5]: 0.905% | Fold activation [6]: 1.42 | Fold activation [7]: 1.11

COc1cccc(Cn2cc(C(=O)Nc3ccc(C)c(S(=O)(=O)N4CCOCC4)c3)c(-c3ccc(C)cc3)n2)c1
Remaining activity [8]: 0.847 | Remaining activity [9]: 0.432 | Remaining activity [10]: 0.617 | P-value [11]: 1.23e-07 | Relative activation [12]: 0.49% | Remaining activity [13]: 0.543 | Remaining activity [14]: 0.724 | Remaining activity [15]: 0.982 | Fold activation [16]: 1.1

Clc1ccc(-c2nc3sccn3c2/C=N/OCc2ccc(Cl)c(Cl)c2)cc1
Remaining activity [17]: 0.989 | Fold activation [18]: 1.11 | Relative activation [19]: 0.637% | Remaining activity [20]: 0.934 | P-value [21]: 0.000158 | Fold activation [22]: 1.23 | Fold activation [23]: 1.19

CCNC(=O)NCCSC[C@H]1O[C@@H](n2cnc3c(N)ncnc32)[C@H](O)[C@@H]1O
Enzyme activity [24]: 45% | Enzyme activity [25]: 45% | Enzyme activity [26]: 38% | Enzyme activity [27]: 45% | Enzyme activity [28]: 45% | Enzyme activity [29]: 38% | Enzyme activity [30]: 38% | Enzyme activity [31]: 38%

O=C(O)c1cc(F)c2nc(N3[C@@H]4CC[C@H]3C[C@@H](OCc3c(-c5ccccc5OC(F)(F)F)noc3C3CC3)C4)sc2c1
Remaining activity [32]: 0.961 | Remaining activity [33]: 0.696 | P-value [34]: 0.00151 | Remaining activity [35]: 0.47 | Fold activation [36]: 1.28 | Remaining activity [37]: 0.655 | Relative activation [38]: 0.815%
